The record followed here is patent US20080318943A1, “Compounds and Uses Thereof - 848” (ASTRAZENECA AB, priority 2007, published 2008).

The target of test [1] is T1, GABAA2 receptors (α2, β3, γ2 receptor subunits transfected into Sf9 cells) (Homo sapiens, UniProt P18507+P47869).
T1 construct: host or cells: Sf9 cells (membranes)
The test can be described thus: GABAA2 Binding Method ([3H]-Flunitrazepam displacement). The following applies: [3H]-Flunitrazepam ~2 nM, α2β3γ2 Sf9 membranes, 1 hr at 4° C. In outline:
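Membranes from Sf9 cells expressing α2β3γ2 GABAA receptors incubated with ~2 nM (final) [3H]-flunitrazepam and test compound 1 h at 4 °C, then filtered on GF/B plates with cold-buffer washes. Flumazenil-defined controls; percent of control, IC50 and Ki calculated.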

The target in another test is T2, GABAA receptor α1β2γ2 (Homo sapiens, UniProt P14867+P18507).
T2 construct: expressed in transfected cells; host or cells: Xenopus laevis oocytes injected with cRNA
The test can be described thus: Two-electrode voltage-clamp potentiation of GABA EC10 current in Xenopus oocytes, GABAA1. The test is classed as cell-based. The following applies: percentage potentiation of GABA EC10 current divided by that of diazepam. In outline: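 Human GABAA receptors expressed in Xenopus oocytes by cRNA injection (α:β:γ molar ratio ~1:1:10 for α1β2γ2, 1:1:1 for α2β3γ2), recorded 2-10 days later by two-electrode voltage clamp at −60 mV in ND-96, pH 7.5. Modulator preapplied 30 s before GABA at per-oocyte EC10. Peak-current percent potentiation over GABA alone, normalised to diazepam.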

SMILES strings stand for the structures.

One may read the Ki as the dissociation constant of the complex between target and ligand, obtained from inhibition or displacement. High values mean a looser hold on the target, low ones a stronger hold on the target.

T1 sequence (P47869 29-451): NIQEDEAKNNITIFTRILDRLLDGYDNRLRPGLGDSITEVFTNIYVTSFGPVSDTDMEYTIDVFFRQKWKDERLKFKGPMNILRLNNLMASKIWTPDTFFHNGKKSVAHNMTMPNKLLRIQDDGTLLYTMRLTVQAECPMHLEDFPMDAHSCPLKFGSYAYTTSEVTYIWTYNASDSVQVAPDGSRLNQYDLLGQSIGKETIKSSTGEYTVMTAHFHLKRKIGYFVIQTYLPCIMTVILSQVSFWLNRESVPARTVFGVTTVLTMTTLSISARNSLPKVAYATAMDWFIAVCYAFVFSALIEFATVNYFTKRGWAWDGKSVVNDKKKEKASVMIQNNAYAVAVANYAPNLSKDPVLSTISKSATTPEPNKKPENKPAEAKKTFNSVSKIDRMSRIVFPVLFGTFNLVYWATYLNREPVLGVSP
T1 sequence (P28472 26-473 partner): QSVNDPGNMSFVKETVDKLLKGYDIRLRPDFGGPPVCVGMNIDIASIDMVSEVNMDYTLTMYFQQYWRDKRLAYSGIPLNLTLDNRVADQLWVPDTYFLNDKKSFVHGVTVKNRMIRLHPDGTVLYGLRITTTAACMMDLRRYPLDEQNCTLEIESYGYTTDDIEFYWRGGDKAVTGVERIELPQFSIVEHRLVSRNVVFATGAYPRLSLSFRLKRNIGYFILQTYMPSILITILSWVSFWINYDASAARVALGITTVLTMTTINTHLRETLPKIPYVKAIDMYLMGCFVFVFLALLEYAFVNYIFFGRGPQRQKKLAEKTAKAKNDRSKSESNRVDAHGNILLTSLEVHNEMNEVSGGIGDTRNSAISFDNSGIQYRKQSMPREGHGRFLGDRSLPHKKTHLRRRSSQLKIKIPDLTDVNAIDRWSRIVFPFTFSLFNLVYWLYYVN
T1 sequence (P18507 40-475): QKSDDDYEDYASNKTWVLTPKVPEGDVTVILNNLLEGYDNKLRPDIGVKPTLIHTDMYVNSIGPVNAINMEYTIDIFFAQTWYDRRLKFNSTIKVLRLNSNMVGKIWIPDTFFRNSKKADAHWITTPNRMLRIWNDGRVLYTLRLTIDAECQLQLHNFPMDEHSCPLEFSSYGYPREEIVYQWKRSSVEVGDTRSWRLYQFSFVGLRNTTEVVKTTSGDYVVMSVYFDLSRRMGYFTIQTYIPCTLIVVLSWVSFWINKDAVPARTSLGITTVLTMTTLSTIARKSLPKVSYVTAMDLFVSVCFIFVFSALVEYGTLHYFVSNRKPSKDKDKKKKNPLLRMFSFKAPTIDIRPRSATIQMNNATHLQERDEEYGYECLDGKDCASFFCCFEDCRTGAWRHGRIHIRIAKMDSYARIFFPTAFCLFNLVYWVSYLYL
T2 sequence (P14867 28-456): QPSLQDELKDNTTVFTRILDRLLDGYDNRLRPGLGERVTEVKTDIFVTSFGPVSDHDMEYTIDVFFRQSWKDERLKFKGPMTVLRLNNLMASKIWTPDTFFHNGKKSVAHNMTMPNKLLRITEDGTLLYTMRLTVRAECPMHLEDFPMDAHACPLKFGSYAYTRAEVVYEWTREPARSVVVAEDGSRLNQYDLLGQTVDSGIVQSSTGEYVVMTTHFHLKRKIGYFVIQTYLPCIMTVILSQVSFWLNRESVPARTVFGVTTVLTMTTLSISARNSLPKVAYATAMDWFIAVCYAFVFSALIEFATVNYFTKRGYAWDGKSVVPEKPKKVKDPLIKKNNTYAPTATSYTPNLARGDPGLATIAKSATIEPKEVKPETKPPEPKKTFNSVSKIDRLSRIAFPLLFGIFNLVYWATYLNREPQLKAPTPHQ
T2 sequence (P47870 25-512 partner limits assumed): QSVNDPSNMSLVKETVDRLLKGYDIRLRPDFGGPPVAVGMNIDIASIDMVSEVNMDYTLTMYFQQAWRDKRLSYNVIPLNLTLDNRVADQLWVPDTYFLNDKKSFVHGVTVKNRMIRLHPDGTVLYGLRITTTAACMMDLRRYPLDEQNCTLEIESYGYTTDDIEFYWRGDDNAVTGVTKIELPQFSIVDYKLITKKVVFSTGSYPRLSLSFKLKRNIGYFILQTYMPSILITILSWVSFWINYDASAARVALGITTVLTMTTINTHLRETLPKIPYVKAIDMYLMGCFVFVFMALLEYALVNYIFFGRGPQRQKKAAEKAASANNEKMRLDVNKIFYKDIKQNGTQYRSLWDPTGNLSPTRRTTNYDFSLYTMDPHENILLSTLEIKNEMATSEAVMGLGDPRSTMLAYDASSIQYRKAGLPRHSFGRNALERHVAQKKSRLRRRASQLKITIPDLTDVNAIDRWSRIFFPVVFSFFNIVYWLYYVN
T2 sequence (P18507 40-475): as the sequence (P18507 40-475) above

With `CCCN1Cc2nc3c(-c4cccc(N(C)C)c4)cccc3c(N)c2C1=O` [9-amino-5-(3-(dimethylamino)phenyl)-2-propyl-2,3-dihydro-1H-pyrrolo[3,4-b]quinolin-1-one], the Ki in test [1] was determined as 37.4 nM. Moreover, the “Relative Potentiation for GABAA1” value at GABAA receptor α1β2γ2 is 0.27.

The molecule `COc1ccc(CN2Cc3nc4c(-c5ccc(F)cc5OC)cccc4c(N)c3C2=O)cc1` [9-amino-5-(4-fluoro-2-methoxyphenyl)-2-(4-methoxybenzyl)-2,3-dihydro-1H-pyrrolo[3,4-b]quinolin-1-one] gave a Ki in test [1] of 31.2 nM. Besides, on GABAA receptor α1β2γ2, the “Relative Potentiation for GABAA1” value is on record as 0.22.

`CCCN1Cc2nc3c(-c4ccc(OC)cc4C(F)(F)F)cccc3c(N)c2C1=O` [9-amino-5-(4-methoxy-2-(trifluoromethyl)phenyl)-2-propyl-2,3-dihydro-1H-pyrrolo[3,4-b]quinolin-1-one] came in with a Ki in test [1] of 10.4 nM. Also, the “Relative Potentiation for GABAA1” value at GABAA receptor α1β2γ2 was found to be 0.25.

`CCCN1Cc2nc3c(-c4cc(Br)cnc4OC)cccc3c(N)c2C1=O` [9-amino-5-(5-bromo-2-methoxypyridin-3-yl)-2-propyl-2,3-dihydro-1H-pyrrolo[3,4-b]quinolin-1-one] showed a Ki in test [1] of 10.6 nM. In addition, the “Relative Potentiation for GABAA1” value on GABAA receptor α1β2γ2 was determined as 0.53.

On to `COc1ccc(Cl)cc1-c1cccc2c(N)c3c(nc12)CN(C1CC1)C3=O` [9-amino-5-(5-chloro-2-methoxyphenyl)-2-cyclopropyl-2,3-dihydro-1H-pyrrolo[3,4-b]quinolin-1-one], for which, in test [1], the affinity, expressed as Ki, was 8.95 nM. In addition, the “Relative Potentiation for GABAA1” value on GABAA receptor α1β2γ2 was found to be 0.19.

Regarding `CCCN1Cc2nc3c(-c4cc(Cl)cnc4OC)cccc3c(N)c2C1=O` [9-amino-5-(5-chloro-2-methoxypyridin-3-yl)-2-propyl-2,3-dihydro-1H-pyrrolo[3,4-b]quinolin-1-one], in test [1], the Ki is 21.5 nM. In addition, on GABAA receptor α1β2γ2, the “Relative Potentiation for GABAA1” value was 0.49.

`COc1ccc(CN2Cc3nc4c(-c5cc(F)ccc5OC)cccc4c(N)c3C2=O)cc1` [9-amino-5-(5-fluoro-2-methoxyphenyl)-2-(4-methoxybenzyl)-2,3-dihydro-1H-pyrrolo[3,4-b]quinolin-1-one]: the affinity in test [1], expressed as Ki, was 46.3 nM. The “Relative Potentiation for GABAA1” value at GABAA receptor α1β2γ2 worked out at 0.39.

In test [1], `COc1ccc(CN2Cc3nc4c(-c5cc(F)ccc5C)cccc4c(N)c3C2=O)cc1` [9-amino-5-(5-fluoro-2-methylphenyl)-2-(4-methoxybenzyl)-2,3-dihydro-1H-pyrrolo[3,4-b]quinolin-1-one] displayed an inhibitory constant (Ki) of 25.8 nM. Further, the “Relative Potentiation for GABAA1” value at GABAA receptor α1β2γ2 turned out to be 0.22.

With `CCCN1Cc2nc3c(-c4cc(F)ccc4C)cccc3c(N)c2C1=O` [9-amino-5-(5-fluoro-2-methylphenyl)-2-propyl-2,3-dihydro-1H-pyrrolo[3,4-b]quinolin-1-one], the inhibition constant Ki in test [1] amounted to 6.3 nM. Moreover, the “Relative Potentiation for GABAA1” value on GABAA receptor α1β2γ2 was determined as 0.29.

With `CCCN1Cc2nc3c(-c4cncc(OC)c4)cccc3c(N)c2C1=O` [9-amino-5-(5-methoxypyridin-3-yl)-2-propyl-2,3-dihydro-1H-pyrrolo[3,4-b]quinolin-1-one], the Ki in test [1] worked out at 63 nM. Further, the “Relative Potentiation for GABAA1” value on GABAA receptor α1β2γ2 is on record as 0.23.

With `Cc1nc(Cl)ccc1-c1cccc2c(N)c3c(nc12)CN(C1CC1)C3=O` [9-amino-5-(6-chloro-2-methylpyridin-3-yl)-2-cyclopropyl-2,3-dihydro-1H-pyrrolo[3,4-b]quinolin-1-one], the affinity in test [1] corresponds to a Ki of 28 nM. At GABAA receptor α1β2γ2, the “Relative Potentiation for GABAA1” value turned out to be 0.16.

For the molecule `CCCN1Cc2nc3c(-c4ccc(Cl)nc4C)cccc3c(N)c2C1=O` [9-amino-5-(6-chloro-2-methylpyridin-3-yl)-2-propyl-2,3-dihydro-1H-pyrrolo[3,4-b]quinolin-1-one], the Ki in test [1] came out at 23.1 nM. Further, at GABAA receptor α1β2γ2, the “Relative Potentiation for GABAA1” value is recorded as 1.1.

On to `CCCN1Cc2nc3c(-c4ccc(OC)nc4C)cccc3c(N)c2C1=O` [9-amino-5-(6-methoxy-2-methylpyridin-3-yl)-2-propyl-2,3-dihydro-1H-pyrrolo[3,4-b]quinolin-1-one], for which affinity in test [1] was put at a Ki of 16.4 nM. Also, on GABAA receptor α1β2γ2, the “Relative Potentiation for GABAA1” value is given as 0.29.
